Data set [1] deals with Bcl-2/Bax. Put plainly: Bcl-2/Bax expression ratio by real-time PCR in 3T3-L1 and UCP2-transfected 3T3-L1 adipocytes. It counts as cell-based. As to conditions: DNP 25 μM and 50 μM, 24 h; P<0.02. The method, then:
(§1) 3T3-L1 preadipocytes were incubated at a density of 8000 cells/cm2 (10 cm2 dish) and grown in Dulbecco's modified Eagle's medium (DMEM) containing 10% FBS and antibiotics (adipocyte medium) at 37° C. in 5% CO2 in air. Confluent preadipocytes were induced to differentiate with a standard differentiation medium consisting of DMEM-F10 (1:1, vol/vol) medium supplemented with 1% FBS, 1 μM dexamethasone, IBMX (0.5 mM), and antibiotics (1% penicillin-streptomycin). Preadipocytes were maintained in this differentiation medium for 3 days and subsequently cultured in adipocyte medium. Cultures were re-fed every 2-3 days to allow 90% cells to reach full differentiation before they were chemically treated. Chemicals were freshly diluted in adipocyte medium before treatment. Cells were washed with fresh adipocyte medium, re-fed with medium containing the different treatments, and incubated at 37° C. in 5% CO2 in air before analysis. Cell viability was measured via trypan blue exclusion.
(§2) UCP2 full-length cDNAs were amplified by […] using mRNAs isolated from mouse white adipose tissues. The PCR primers for this amplification are shown as follows: UCP2 forward, 5′-[…]-3′, reverse, 5′-[…]-3′. The PCR products were then subcloned into pcDNA4/His expression vectors. The linearized constructs were transfected into 3T3-L1 preadipocytes using lipofectamine plus standard protocol (Invitrogen, Carlsbad, Calif.). After 48 h of transfection, cells were split and cultured in selective medium containing 400 ug/ml zeocin for the selection of resistant colonies. […]
(§3) Adipocyte caspase-1, caspase-3, Bcl-2, and Bax mRNA were quantitatively measured using a Smart Cycler Real Time PCR System (Cepheid, Sunnyvale, Calif.) with a TaqMan 1000 Core Reagent Kit (Applied Biosystems, Branchburg, N.J.). […] Reactions of quantitative RT-PCR for standards and unknown samples were Cepheid, Sunnyvale, Calif.) and TaqMan Real Time PCR Core Kit. The mRNA quantitation for each sample was further normalized using the corresponding 18 s quantitation, with a forward primer, 5′-[…]-3′, and a reverse primer, 5′-[…]-3′.

The test system of data set [2] is caspase-3. Description: Caspase-3 mRNA expression by real-time PCR in 3T3-L1 and UCP2-transfected 3T3-L1 adipocytes. It counts as cell-based. As for the experimental part: as §1
UCP2 full-length cDNAs were amplified by […] using mRNAs isolated from mouse white adipose tissues. The PCR primers for this amplification are shown as follows: UCP2 forward, 5′-[…]-3′, reverse, 5′-[…]-3′. The PCR products were then subcloned into pcDNA4/His expression vectors. The linearized constructs were transfected into 3T3-L1 preadipocytes using lipofectamine plus standard protocol (Invitrogen, Carlsbad, Calif.). After 48 h of transfection, cells were split and cultured in selective medium containing 400 ug/ml zeocin for the selection of resistant colonies. Cells were fed with selective medium every 3 days until resistant colonies could be identified. These resistant foci were picked, expanded, tested for expression, and frozen for future experiments.
A total cellular RNA isolation kit (Ambion, Austin, Tex.) was used to extract total RNA from 3T3-L1 cells according to the manufacturer's instructions.
Adipocyte caspase-1, caspase-3, Bcl-2, and Bax mRNA were quantitatively measured using a Smart Cycler Real Time PCR System (Cepheid, Sunnyvale, Calif.) with a TaqMan 1000 Core Reagent Kit (Applied Biosystems, Branchburg, N.J.). The primers and probe sets were ordered from Applied Biosystems TaqMan Assays-on-Demand Gene Expression primers and probe set collection according to the manufacturer's instructions. Pooled 3T3-L1 adipocyte total RNA was serial-diluted in the range of 1.5625-25 ng and used to establish a standard curve; total RNAs for unknown samples were also diluted in this range. Reactions of quantitative RT-PCR for standards and unknown samples were Cepheid, Sunnyvale, Calif.) and TaqMan Real Time PCR Core Kit. The mRNA quantitation for each sample was further normalized using the corresponding 18 s quantitation, with a forward primer, 5′-[…]-3′, and a reverse primer, 5′-[…]-3′.
3T3-L1 preadipocytes were incubated at a density of 8000 cells/cm2 (10 cm2 dish) and grown in Dulbecco's modified Eagle's medium (DMEM) containing 10% FBS and antibiotics at 37° C. in 5% CO2. Confluent preadipocytes were induced to differentiate with a standard differentiation medium consisting of DMEM-F 10 (1:1, vol/vol) medium supplemented with 1% FBS, 1 μM dexamethasone, IBMX (0.5 mM) and antibiotics (1% penicillin/streptomycin). Preadipocytes were maintained in this differentiation medium for 3 days and subsequently cultured in adipocyte medium. Cultures were re-fed every 2-3 days to allow 90% cells to reach fully differentiation before conducting chemical treatment. Chemicals were freshly diluted in adipocyte medium before treatment. Cells were washed with fresh adipocyte medium, re-fed with medium containing the different treatments, and incubated at 37° C. in 5% CO2 in air before analysis. Cell viability was measured via trypan blue exclusion.
Adipocytes were incubated with adipocyte medium for 24 h with or without GDP, BK 8644, GDP plus BK8644 before total RNA extraction. […]
(Real-time PCR tracks product formation cycle by cycle.)

In data set [3] the test system is caspase-1. Description: Caspase-1 mRNA expression by real-time PCR in 3T3-L1 and UCP2-transfected 3T3-L1 adipocytes. It counts as cell-based. The following applies: DNP 25 μM and 50 μM, 24 h; P<0.05. As for the experimental part:
as §1, §2, §3

For data set [4], the system named is 3T3-L1 and UCP2-transfected 3T3-L1 cells. Put plainly: Mitochondrial membrane potential (JC-1 fluorometry) in adipocytes. As to conditions: for increase in mitochondrial potential: p<0.05. It counts as cell-based. The method, then: Adipocytes were incubated with adipocyte medium for 4 h with or without 1α,25-(OH)2-D3. Mitochondrial membrane potential was analyzed fluorometrically with a lipophilic cationic dye JC-1 (5,5′,6,6′-tetrachloro-1,1′,3,3′-tetraethylbenzimidazol carbocyanine iodide) using a mitochondrial potential detection kit (Biocarta, San Diego, Calif.). Mitochondrial potential was determined as the ratio of red fluorescence (excitation 550 nm, emission 600 nm) and green fluorescence (excitation 485 nm, emission 535 nm) using a fluorescence microplate reader.
Adipocytes were incubated with adipocyte medium for 4 h with or without GDP, BK 8644, GDP plus BK8644. Mitochondrial membrane potential was analyzed fluorometrically with a lipophilic cationic dye JC-1 (5,5′,6,6′-tetrachloro-1,1′,3,3′-tetraethylbenzimidazol carbocyanine iodide) using a mitochondrial potential detection kit (Biocarta, San Diego, Calif.). Mitochondrial potential was determined as the ratio of red fluorescence (excitation 550 nm, emission 600 nm) and green fluorescence (excitation 485 nm, emission 535 nm) using a fluorescence microplate reader.

In data set [5] the test system is 3T3-L1 and UCP2-transfected 3T3-L1 adipocytes. Put plainly: Cytosolic/intracellular calcium (fura-2 dual-wavelength fluorescence imaging) in adipocytes. It counts as cell-based. The following applies: 3T3-L1 cells; data not shown.
The test system of data set [6] is UCP2. Description: UCP2 expression in 3T3-L1 cells (western blot, UCP2/actin). It counts as cell-based, mouse. The following applies: siRNA transfected 3T3-L1 cells, 48 hrs after transfection. The method, then:
Duplex siRNA corresponding to UCP2 gene was designed and chemically synthesized by Invitrogen. The following gene-specific sequences were used successfully: Si-UCP2 sense 5′-GCCUCUACGACUCUGUCAA-3′ and antisense […]. Transfection of siRNA was performed with Oligofectamine™ reagent (Invitrogen Life Technologies, CA) in 6-well plates. Briefly, Oligofectamine diluted in DMEM was applied to the duplex siRNA mixture, and the formulation was continued for 20 min to allow the Oligofectamine-oligonucleotide complex to form. Per well, 800 μl of plating medium and 10 ul of 20 μM duplex siRNA duplex siRNA formulated with 4 μl of Oligofectamine were applied in a final volume of 1 ml. Cells were then incubated at […] in a CO2 incubator for 4 hrs. […]
Adipocytes were harvested and sonicated in a homogenization buffer containing 50 mM Tris-HCl (PH 7.4), 250 mM sucrose, 1 mM EDTA, 1 mM dithiothreitol, 1% (v/v) Triton X, 10% protease cocktail (Sigma). […] Homogenate intrafranatant protein from equal numbers of cells (determined via protein quantitation using Bradford method as described previously) was boiled in Laemmli sample buffer and subject to 10% SDS-polyacrylamide gel electrophoresis (PAGE). […] Visualization was detected with chemiluminescence reagent, using the Western Blotting Luminal Reagent (Santa Cruz Biotechnology, CA).
In general terms: In western blotting, separated proteins are transferred to a membrane and probed.

Setting [7] is: siRNA transfected 3T3-L1 cells (UCP2 ko) vs control.

As to `O=[N+]([O-])c1ccc(O)c([N+](=O)[O-])c1` [DNP, 2,4-dinitrophenol], in data set [1], the “Bcl-2/Bax ratio versus nontransfected 3T3-L1 cells” value is given as “significantly lower”. Moreover, in data set [2] (DNP 25 μM and 50 μM, 24 h, P<0.05), the “basal caspase-3 expression level compared with control cells” value was “significantly higher”. In addition, the “basal caspase-1 expression level compared with control cells” value in data set [3] is listed as “significantly higher”.

Turning to `Nc1nc2c(ncn2[C@@H]2O[C@H](COP(=O)(O)OP(=O)(O)O)[C@@H](O)[C@H]2O)c(=O)[nH]1` [GDP, guanosine 5′-diphosphate], the “suppression of caspase-3 expression in BK8644 pretreated cells” value in data set [2] (3T3-L1 cells pretreated with BK8644, p<0.05) was found to be 45%. For the same compound, the “increase in mitochondrial potential” value is reported as 27% in data set [4] (100 μM, 3T3-L1 cells, 4 h) and 48% in data set [4] (500 μM, 3T3-L1 cells, 4 h). Besides, in data set [4] (3T3-L1 cells, GDP), the mitochondrial potential result is “increased”. Besides, the “[Ca2+]i level” value in data set [5] is on record as “decreased”.

For “siRNA: duplex siRNA corresponding to UCP2 gene, sense 5′-GCCUCUACGACUCUGUCAA-3′ (antisense UUGACAGAGUCGAGGC; chemistry not given here)”, the “decrease in caspase-3 expression” value in data set [2] (setting [7]) came out at 58%. For the same compound, the “decrease in UCP2 expression” value in data set [6] is on record as 70%. Further, in data set [4] (setting [7]), the “increase in mitochondrial potential” value is 52%.

The record behind these values is patent US20070286886A1, “Materials And Methods For Inducing Apoptosis In Adipocytes” (University of Tennessee Research Foundation, priority 2004, published 2007).
